Reference: PMC6792352, “Limited Chemical Structural Diversity Found to Modulate Thyroid Hormone Receptor in the Tox21 Chemical Library” (Environmental Health Perspectives, 2019)
Where a name gives a salt, the structure may show the parent alone.

Test: in vitro
Conditions: rat, gh3-tre-luc cells, AC50 (uM) modified / 1000
In the case of C[n+]1ccn(Cc2ccccc2)c1 [1-Benzyl-3-methylimidazolium chloride], the CC50 at 24 h is reported as > 90 µM.
With Clc1cc(C(Cl)(Cl)Cl)cnc1Cl [2,3-Dichloro-5-(trichloromethyl)pyridine] the CC50 at 24 h was > 90 µM.
With C=CC[N+](C)(C)CC=C [Diallyldimethylammonium chloride] the CC50 at 24 h was > 90 µM.
In the case of O=[N+]([O-])c1ccc2c3c(cccc13)CC2 [5-Nitroacenaphthene], the CC50 at 24 h is reported as > 90 µM.
For COc1ccc(C[C@H](C)NC[C@@H](O)c2ccc(O)c(NC=O)c2)cc1 [Formoterol hemifumarate dihydrate], the CC50 at 24 h was > 50 µM.
With CN1C(=O)CN=C(c2ccccc2)c2cc([N+](=O)[O-])ccc21 [Nimetazepam] the CC50 at 24 h was > 50 µM.
For CCC1C(C)=NN=C(c2ccc(OC)c(OC)c2)c2cc(OC)c(OC)cc21 (stereo not shown) [Tofisopam], the CC50 at 24 h was > 50 µM.
In the case of Oc1c(I)cc(I)c2cccnc12 [Iodoquinol], the CC50 at 24 h is reported as > 50 µM.
For CCN1CCCC1CNC(=O)c1cc(S(N)(=O)=O)ccc1OC (stereo not shown) [Sulpiride], the CC50 at 24 h was > 90 µM.
In the case of C/C=C/C1=C(C(=O)O)N2C(=O)[C@@H](NC(=O)[C@H](N)c3ccc(O)cc3)[C@H]2SC1 [Cefprozil monohydrate], the CC50 at 24 h is reported as > 50 µM.
With C=C(C)C(=O)OCCCCCCCCCCCCC [Tridecyl methacrylate] the CC50 at 24 h was > 90 µM.
With CCN1CCC[C@H]1CNC(=O)c1c(O)c(Cl)cc(Cl)c1OC [Raclopride] the CC50 at 24 h was > 50 µM.
In the case of CCN1C(=O)NC(c2ccccc2)C1=O (stereo not shown) [Ethotoin], the CC50 at 24 h is reported as > 20 µM.
In the case of O=[N+]([O-])c1ccccc1CCO [2-(2-Nitrophenyl)ethanol], the CC50 at 24 h is reported as > 90 µM.
In the case of O=c1oc(=O)c2cc3c(=O)oc(=O)c3cc12 [1H,3H-Benzo(1,2-c:4,5-c')difuran-1,3,5,7-tetrone], the CC50 at 24 h is reported as > 90 µM.
Work on CCOC(=O)Nc1ccc2c(c1)N(C(=O)CN(C)C)c1ccccc1CC2 [Tiracizine] yielded a CC50 at 24 h of 41.3 µM.
CO[C@H]1C[C@H](O[C@H]2[C@H](C)O[C@@H](O[C@@H]3/C(C)=C/C[C@@H]4C[C@@H](C[C@]5(C=C[C@H](C)[C@@H](C6CCCCC6)O5)O4)OC(=O)[C@@H]4C=C(C)[C@@H](O)[C@H]5OC/C(=C\C=C\[C@@H]3C)[C@]54O)C[C@@H]2OC)O[C@@H](C)[C@@H]1O [Doramectin] showed a CC50 at 24 h of 2.94 µM.
For O=C(NCO)NCO [Dimethylolurea], the CC50 at 24 h was > 100 µM.
In the case of N[C@@H]1C[C@H]1c1ccccc1 [Tranylcypromine hydrochloride], the CC50 at 24 h is reported as > 50 µM.
With CCOC(=O)C1=C[C@@H](OC(CC)CC)[C@H](NC(C)=O)[C@@H](N)C1 [Oseltamivir tartrate] the CC50 at 24 h was > 50 µM.
With C[Si](C)(C)O[Si](C)(C)C [Hexamethyldisiloxane] the CC50 at 24 h was > 90 µM.
For CCCCCCCCCCCCCCCCCCCCCC(=O)Nc1ccn([C@@H]2O[C@H](CO)[C@@H](O)[C@@H]2O)c(=O)n1 [Enocitabine], the CC50 at 24 h was > 50 µM.
In the case of Cc1cccc(C)c1OCC(C)N (stereo not shown) [Mexiletene hydrochloride], the CC50 at 24 h is reported as > 50 µM.
In the case of CCO[Si](CC(C)C)(OCC)OCC [Triethoxy(2-methylpropyl)silane], the CC50 at 24 h is reported as > 90 µM.
With CC1(C)NC(=O)N(c2ccc([N+](=O)[O-])c(C(F)(F)F)c2)C1=O [Nilutamide] the CC50 at 24 h was > 90 µM.
For CS(=O)(=O)c1ccc(Cl)cc1 [4-Chlorophenyl methyl sulfone], the CC50 at 24 h was > 90 µM.
For CCCCCCCCS [1-Octanethiol], the CC50 at 24 h was > 90 µM.
For O=Cc1cccc([N+](=O)[O-])c1 [3-Nitrobenzaldehyde], the CC50 at 24 h was > 90 µM.
With CCCCCCCC(=O)OC [Methyl octanoate] the CC50 at 24 h was > 90 µM.
With N=C(N)N1CCc2ccccc2C1 [Debrisoquin sulfate] the CC50 at 24 h was > 50 µM.
With CCOC(=O)C(Br)c1ccccc1 (stereo not shown) [Ethyl bromophenylacetate] the CC50 at 24 h was > 90 µM.
For CC(C)CC#N [Isovaleronitrile], the CC50 at 24 h was > 90 µM.
With CCc1ccc(O)c(C(C)(C)C)c1 [2-tert-Butyl-4-ethylphenol] the CC50 at 24 h was 62.1 µM.
With COCC(=O)Nc1c(I)c(C(=O)NCC(O)CO)c(I)c(C(=O)N(C)CC(O)CO)c1I (mixture of isomers) [Iopromide] the CC50 at 24 h was > 20 µM.
For CO/N=C(\C(=O)N[C@@H]1C(=O)N2C(C(=O)O)=C(CSc3nc(C)c(CC(=O)O)s3)CS[C@H]12)c1csc(N)n1 [Cefodizime sodium], the CC50 at 24 h was > 50 µM.
In the case of N=c1nc(N2CCCCC2)cc(N)n1O [Minoxidil], the CC50 at 24 h is reported as > 50 µM.
For CC1CS(=O)(=O)CCN1/N=C/c1ccc([N+](=O)[O-])o1 (stereo not shown) [Nifurtimox], the CC50 at 24 h was 8.46 µM.
For CC(C)c1ccc(CO)cc1 [4-Isopropylbenzyl alcohol], the CC50 at 24 h was > 90 µM.
Work on N#CC(C#N)=Cc1ccc(O)c(O)c1 [Tyrphostin 23] yielded a CC50 at 24 h of 16.8 µM.
Compound COc1ccc(N=Nc2cc(C)c(N=Nc3ccc(S(=O)(=O)O)cc3)cc2OC)cc1 [Acid Orange 156] has a CC50 at 24 h of 64.4 µM.
With Cc1c(-c2ccccc2)oc2c(C(=O)OCCN3CCCCC3)cccc2c1=O [Flavoxate hydrochloride] the CC50 at 24 h was > 20 µM.
In the case of c1ccc(-c2nnn[nH]2)cc1 [5-Phenyl-1H-tetrazole], the CC50 at 24 h is reported as > 90 µM.
With Cc1cc(N)c2cc(NC(=O)Nc3ccc4nc(C)cc(N)c4c3)ccc2n1 [Aminoquinuride dihydrochloride] the CC50 at 24 h was 35 µM.
In the case of O=C(O)CCCc1c[nH]c2ccccc12 [Indole-3-butyric acid], the CC50 at 24 h is reported as > 90 µM.
For SCCCCCCCCS [1,8-Octanedithiol], the CC50 at 24 h was > 90 µM.
For CN(C(=O)c1c(O)c2ccccc2n(C)c1=O)c1ccccc1 [Roquinimex], the CC50 at 24 h was > 50 µM.
With Nc1ccc(-c2ccc(F)cc2)cc1 [4'-Fluoro-4-aminodiphenyl] the CC50 at 24 h was > 90 µM.
With CN(C)CC/C=C1/c2ccccc2Sc2ccc(Cl)cc21 [Chlorprothixene] the CC50 at 24 h was 11 µM.
For CCOCCO [2-Ethoxyethanol], the CC50 at 24 h was > 90 µM.
In the case of Oc1ccccc1F [2-Fluorophenol], the CC50 at 24 h is reported as > 90 µM.
With CC(C)CCC[C@@H](C)[C@H]1CC[C@H]2[C@@H]3CC[C@@H]4C[C@H](O)CC[C@]4(C)[C@H]3CC[C@]12C [(3alpha,5beta)-Cholestan-3-ol] the CC50 at 24 h was > 50 µM.
For CC1=CC[C@H](C(C)C)C=C1 [(R)-alpha-Phellandrene], the CC50 at 24 h was > 90 µM.
CC(C)(C)NC[C@H](O)COc1ccccc1C1CCCC1 [Penbutolol sulfate] showed a CC50 at 24 h of 11.1 µM.
In the case of c1ccccc1 [Benzene], the CC50 at 24 h is reported as > 90 µM.
For CCCCOC(=O)[C@@H](C)Oc1ccc(Oc2ccc(C(F)(F)F)cn2)cc1 [Fluazifop-P-butyl], the CC50 at 24 h was > 90 µM.
In the case of C=CC(=O)NC(C)(C)C [tert-Butylacrylamide], the CC50 at 24 h is reported as > 90 µM.
With CC(=O)OC(C)OC(C)=O [1,1-Ethanediol diacetate] the CC50 at 24 h was > 90 µM.
In the case of ClC(Cl)(Cl)c1ccccc1 [Benzotrichloride], the CC50 at 24 h is reported as > 90 µM.

Same assay, conditions: rat, gh3-tre-luc cells, AC50 (uM) modified / 1000, Tox21_110001=Tox21_111056; viability, 1 nM T3 present, 24 h
For C[C@]12CCC(=O)C[C@@H]1CC[C@@H]1[C@@H]2CC[C@]2(C)[C@@H](O)CC[C@@H]12 [5alpha-Dihydrotestosterone], the CC50 at 24 h was > 50 µM.

Same assay, conditions: rat, gh3-tre-luc cells, AC50 (uM) modified / 1000, Tox21_110001=Tox21_112207; viability, 1 nM T3 present, 24 h
With C[C@]12CC[C@@H]3c4ccc(OC(=O)N(CCCl)CCCl)cc4CC[C@H]3[C@@H]1CC[C@@H]2O [Estramustine] the CC50 at 24 h was > 50 µM.

Same assay, conditions: rat, gh3-tre-luc cells, AC50 (uM) modified / 1000, Tox21_110001=Tox21_200987; viability, 1 nM T3 present, 24 h
For C[C@]12CCC(=O)C[C@@H]1CC[C@@H]1[C@@H]2CC[C@]2(C)[C@@H](O)CC[C@@H]12 [5alpha-Dihydrotestosterone], the CC50 at 24 h was > 90 µM.

Same assay, conditions: rat, gh3-tre-luc cells, AC50 (uM) modified / 1000, Tox21_110001=Tox21_202132; viability, 1 nM T3 present, 24 h
In the case of O=NN1CCOCC1 [N-Nitrosomorpholine], the CC50 at 24 h is reported as > 100 µM.

Same assay, conditions: rat, gh3-tre-luc cells, AC50 (uM) modified / 1000, Tox21_110001=Tox21_300689; viability, 1 nM T3 present, 24 h
With O=C(Cc1ccccc1)OCCc1ccccc1 [2-Phenylethyl phenylacetate] the CC50 at 24 h was > 90 µM.

Same assay, conditions: rat, gh3-tre-luc cells, AC50 (uM) modified / 1000, Tox21_110001=Tox21_300806; viability, 1 nM T3 present, 24 h
For CNC(=O)/C=C(\C)OP(=O)(OC)OC [Monocrotophos], the CC50 at 24 h was > 90 µM.

Same assay, conditions: rat, gh3-tre-luc cells, AC50 (uM) modified / 1000, Tox21_110001=Tox21_300965; viability, 1 nM T3 present, 24 h
Work on CCOP(=S)(Oc1cnc(C(C)(C)C)nc1)OC(C)C (stereo not shown) [Tebupirimfos] yielded a CC50 at 24 h of 52.3 µM.

Same assay, conditions: rat, gh3-tre-luc cells, AC50 (uM) modified / 1000, Tox21_110001=Tox21_302867; viability, 1 nM T3 present, 24 h
In the case of O=NN1CCOCC1 [N-Nitrosomorpholine], the CC50 at 24 h is reported as > 90 µM.

Same assay, conditions: rat, gh3-tre-luc cells, AC50 (uM) modified / 1000, Tox21_110001=Tox21_303655; viability, 1 nM T3 present, 24 h
With C[C@]12CCC(=O)C[C@@H]1CC[C@@H]1[C@@H]2CC[C@]2(C)[C@@H](O)CC[C@@H]12 [5alpha-Dihydrotestosterone] the CC50 at 24 h was > 60 µM.
